Consider 3 compounds from patent US4736058A, “Prostacyclins and process for production thereof” (Teijin Limited, priority 1983, dated 1988).

Converted amounts (≈) assume the structure as drawn. Read-outs that look alike come from different tables or passages of the source.

The conditions of data set [1]: background; cited from earlier work.
The conditions of data set [2]: background; natural prostacyclin under neutral or acidic conditions; cited from earlier work.
Data set [3] deals with platelet aggregation (rabbit platelet-rich plasma, ADP). In words: in vitro inhibition of ADP-induced platelet aggregation. The settings on record: Oryctolagus cuniculus. The class given is cell-based, rabbit (Japanese domestic white male). Here is the method:
(i) Measurement of in vitro inhibitory activity of platelet aggregation
The in vitro platelet aggregation inhibiting activities of 9(0)-methano-Δ^6(9) -prostaglandin I, obtained in Example 3 was examined by using rabbits. Blood was withdrawn from the ear vein of Japanese domestic white male rabbits weighing 2.5 to 3.5 kg. A mixture of a 3.8% trisodium citrate solution and the blood in a ratio of 1:9 was centrifuged at a speed of 1000 rpm for 10 minutes. The upper layer was separated as platelet-rich plasma (PRP). The lower layer was further centrifuged at a speed of […] for 10 minutes. The upper layer was separated as platelet-poor plasma (PPP). The number of platelets was adjusted to 6×10^5 /μl to 7×10^5 /μl by diluting the PRP with PPP. 25 microliters of the test compound prepared as shown below was added in an amount of 250 microliters of PRP after the adjustment, and the mixture was pre-incubated at 37° C. for 2 minutes, and then 10 μM (final) of ADP was added. By using an aggregometer, changes in transmission were recorded.
The test compound was dissolved in ethanol to a concentration of 10 mg/ml. When its activity was measured, it was used after being diluted with phosphate buffer (pH 7.4).
The rate of inhibition of platelet aggregation was determined from the following equation. [formula] To : the transmittance of the system containing the phosphate buffer, T: the transmittance of the system to which the test compound was added.
The minimum concentration of the compound which inhibited more than 50% of platelet aggregation was shown as an IC50 value.

Data set [4] can be described thus: hypotensive activity, intravenous injection in anesthetized rats: blood pressure. The class given is in vivo, rat (male wister). The conditions noted are these: rat, i.v., dosage causing a 20% lowering of mean blood pressure. Here is the method: (§1) (ii) Measurement of the hypotensive activity
(§2) The actions of the 9(0)-methano-Δ^6(9) -prostaglandin 1, obtained in Example 3 on the blood pressure and heart rate of rats were examined by intravenous injection under anesthesia.
(§3) Male wister rats weighing about 250 g were used. Urethane (500 mg/kg) and α-chloralose (100 mg/kg) were intraperitoneally administered to the rats. The rats were anesthetized and fixed place.
(§4) The test compound was dissolved in a small amount of ethanol and diluted with 0.05M Tris buffer saline (pH 9) to adjust the final ethanol concentration to not more than 5%. The solution was intravenously injected into the rats through a cathether inserted into the femoral vein.
(§5) The blood pressure of the rats was measured by a pressure transducer through a cathether inserted into the carotid artery of the rats. The heart rate was determined from the blood pressure pulse.
(§6) The action of the test compound on the blood pressure was expressed as the dosage (ED20, μg/kg) of the test compound which caused a 20% lowering of the mean blood pressure before administration of the compound. The action of the test compound on the heart rate was expressed as the dosage (ED10, μg/kg) of the test compound which caused a 10% increase of the heart rate from the heart rate before administration of the test compound.

Data set [5] is described as follows: heart rate, intravenous injection in anesthetized rats. The class given is in vivo, rat (male wister). The settings on record: rat, i.v., dosage causing a 10% increase of heart rate. On the procedure:
as §1, §2, §3, §4, §5, §6

Data set [6] deals with epithelial cells of rabbits. Put plainly: cell protecting action against cell lethal action at pH 3. In kind it is cell-based, rabbit. The settings on record: 10^-6 M.
The mark [7] stands for this setting: rabbit PRP, 10 μM ADP, minimum concentration which inhibited more than 50% of platelet aggregation, read-out: platelet aggregation inhibiting activity IC50.

With `CCCCC[C@H](O)/C=C/[C@@H]1[C@H]2C/C(=C\CCCC(=O)O)C[C@H]2C[C@H]1O` [6,9-(0)-methanoprostacyclin], in data set [1], the “action-selectivity, in words” value was “not enough specific in action-selectivity” and the “biological activity relative to natural prostacyclin, in words” value was “inferior to natural prostacyclin in biological activity”. For the same compound, in data set [2], the “chemical stability, in words” value is given as “able to satisfy the chemical stableness to perfection”.
With `CCCCC[C@H](O)/C=C/[C@@H]1[C@H]2CC(CCCCC(=O)O)=C[C@H]2C[C@H]1O` [9(0)-methano-Δ^6(9) -prostaglandin I1], the IC50 amounted to 5.4 ng/mL (≈ 0.0154 µM) in data set [3] (Platelet, rabbits, induced by ADP, read-out: inhibition of platelet aggregation IC50) and 5.4 ng/mL (≈ 0.0154 µM) in data set [3] (setting [7]). This compound also yielded an ED20 in data set [4] of 1.7 µg/kg. For the same compound, the “increase of heart rate ED10” value in data set [5] was over 30 µg/kg. In addition, the cell protecting action entry in data set [6] was “has a cell protecting action”.
As to `CCCCC[C@H](O)/C=C/[C@@H]1[C@H]2C/C(=C/CCCC(=O)O)O[C@H]2C[C@H]1O` [PGI2], the half-inhibitory concentration (IC50) in data set [3] (setting [7]) is 1.6 ng/mL (≈ 0.00454 µM). In addition, the ED20 in data set [4] amounted to 0.068 µg/kg. Moreover, the “increase of heart rate ED10” value in data set [5] is over 10 µg/kg. The “chemical stability, in words” value in data set [2] is “apt to be appreciably hydrolyzed”.

Usually IC50 stands for the point on the concentration scale where inhibition reaches its midpoint.
